From patent publication US20140329868A1, “METHODS FOR TREATING HYPERTENSION” (TAKEDA PHARMACEUTICALS U.S.A., INC., priority 2005, published 2014)

Tests used:
[1] = test system: subjects having a systolic BP≧160 mmHg or diastolic BP≧95 mmHg (elevated blood pressure); experiment: Example 1: blood pressure change in subjects with elevated blood pressure, none taking antihypertensive agents at baseline (two double-blind studies); type: in vivo, human
Method: A total of 103 subjects (9 in the placebo group, 26 in each the 2-[3-cyano-4-(2-methylpropoxy)phenyl]-4-methylthiazole-5-carboxylic acid (hereinafter referred to as “febuxostat”) 80 mg and 120 mg once daily (hereinafter referred to as “QD”) groups, 10 in the febuxostat 240 mg QD group and 32 in the 4-hydroxy-3,4-pyrazolopyrimidine (hereinafter referred to as “allopurinol”) 300/100 mg QD group), having a systolic BP≧160 mmHg or diastolic BP≧95 mmHg, and thus considered to have “elevated blood pressure”, were examined. Allopurinol […] xanthine oxidoreductase inhibitor.
None of the above subjects were taking any antihypertensive agents at the baseline (start) of the study. These […] subjects were part of two (2) double-blind (hereinafter referred to as “DB”) studies. One study was of 28 weeks in duration. During this time, the subjects received 80 mg, 120 mg or 240 mg QD of febuxostat, placebo or allopurinol 300 or 100 mg QD, depending on the subject's renal function. The second study was 52 weeks in duration. During this time, the subjects received 80 mg or 120 mg QD of febuxostat or allopurinol 300 mg QD.

[2] = test system: oxonic acid (OA)-induced hyperuricemic model in Sprague-Dawley rats; experiment: Example 4: micropuncture glomerular hemodynamics and mean arterial pressure under anesthesia in normal and OA-dosed rats; type: in vivo; settings: for mean arterial blood pressure (effect in words): end of study, FIG. 3
Method: Materials and Methods. To produce hyperuricemia, rats received OA (Sigma, St Louis Mo., USA) 750 mg/kg body weight daily by gastric gavage. To investigate the treatment effect of febuxostat (also referred to herein as “Fx”), the drug was administered in drinking water at 50 mg/L (approximately 5-6 mg/kg/day) four weeks after OA dosing while the respective controls received 5.84 mg/L of NaCl in drinking water (to maintain a salt concentration equivalent to the Febuxostat-containing water). The following four groups (n=10-11) were included in the study: Group 1, normal control rats which received no treatment for eight weeks; Group 2, Normal+Febuxostat rats which received no treatment for four weeks and then were treated with febuxostat for four weeks from Weeks 5 to 8; Group 3, OA rats which received OA for eight weeks; and Group 4, OA+Febuxostat rats which received OA for eight weeks and febuxostat for four weeks from Weeks 5 to 8. Body weight, food and water intakes were measured daily. Systolic blood pressure, obtained in conscious rats by a tail cuff sphygmomanometer, and plasma uric acid were measured in all animals at baseline and at the end of four and eight weeks. A renal micropuncture procedure along with systemic arterial blood pressure monitoring under pentobarbital anesthesia were performed at the end of eight weeks followed by morphologic evaluation of the renal preglomerular microvasculature.
Micropuncture Procedure to Assess Glomerular Hemodynamics. Animals were anesthetized with pentobarbital sodium (30 mg/kg, i.p.) and placed on a thermoregulated table to maintain body temperature at 37° C. Trachea, jugular veins, femoral arteries and the left ureter were catheterized with polyethylene tubing (PE-240, PE-50 and PE-10). The left kidney was exposed, placed in a Lucite holder, sealed with agar and covered with Ringer's solution. Mean arterial pressure (hereinafter “MAP”) was monitored using a pressure transducer (Model p23 db; Gould, San Juan, PR) connected to the catheter in the femoral artery and recorded on a polygraph (Grass Instruments, Quincy, Mass., USA). Blood samples were taken periodically and replaced with blood from a donor rat. Rats were maintained under euvolemic conditions by infusion of 10 mL/kg of body weight of isotonic rat plasma during surgery, followed by an infusion of 25% polyfructosan at 2.2 mL/h (Mutest, Fresenius Kabi, Linz, Austria). After 60 min, five to seven samples of proximal tubular fluid were obtained to determine flow rate and polyfructosan concentrations. Intratubular pressure under free-flow (hereinafter “FF”) and stop-flow (hereinafter “SFP”) conditions and peritubular capillary pressure (hereinafter “Pc”) were measured in other proximal tubules with a servo-null device (Servo Nulling Pressure System; Instrumentation for Physiology and Medicine, San Diego, Calif., USA). Glomerular colloid osmotic pressure was estimated from protein concentrations obtained from blood of the femoral artery (hereinafter “Ca”) and surface efferent arterioles (hereinafter “Ce”). Polyfructosan was measured in plasma and urine samples by the anthrone-based technique of Davidson and Sackner (See, Davidson W D et al., J Lab Clin Med 62:351-356 (1963)). Plasma samples were deproteinated first with trichloroacetic acid. After centrifugation, the supernatant was used for polyfructosan measurement. Polyfructosan concentrations in plasma and urine samples were assessed by addition of anthrone reagent followed by incubation at 45° C. for 50 min and reading in a spectrophotometer set at wavelength of 620 nm. Concentrations were calculated by interpolating the absorbance values using a standard curve (0.01-0.05 mg/mL). Total glomerular filtration rate (hereinafter “GFR”) was calculated using the following formula: GFR=(U×V)/P, where U is the polyfructosan concentration in urine, V is urine flow rate, and P is the polyfructosan concentration in plasma. […]

[3] = 80 mg QD, after 4 weeks of treatment
[4] = 80 mg QD, after 28 weeks of treatment
[5] = 80 mg QD, after 52 weeks of treatment
[6] = 120 mg QD, after 4 weeks of treatment
[7] = 120 mg QD, after 28 weeks of treatment
[8] = 120 mg QD, after 52 weeks of treatment
[9] = 240 mg QD, after 4 weeks of treatment
[10] = 240 mg QD, after 28 weeks of treatment
[11] = Normal + FX rats, end of eight weeks
[12] = OA + Fx rats, end of eight weeks

Cc1nc(-c2ccc(OCC(C)C)c(C#N)c2)sc1C(=O)O [febuxostat, 2-[3-cyano-4-(2-methylpropoxy)phenyl]-4-methylthiazole-5-carboxylic acid]
mean change from baseline for diastolic BP [1, 3]: −3.7 mmHg | mean change from baseline for mean arterial BP [1, 3]: −5.2 mmHg | mean change from baseline for systolic BP [1, 3]: −8.2 mmHg | mean change from baseline for diastolic BP [1, 4]: −10.2 mmHg | mean change from baseline for mean arterial BP [1, 4]: −11.1 mmHg | mean change from baseline for systolic BP [1, 4]: −13.0 mmHg | mean change from baseline for diastolic BP [1, 5]: −12.3 mmHg | mean change from baseline for mean arterial BP [1, 5]: −12.7 mmHg | mean change from baseline for systolic BP [1, 5]: −13.4 mmHg | mean change from baseline for diastolic BP [1, 6]: −8.4 mmHg | mean change from baseline for mean arterial BP [1, 6]: −9.3 mmHg | mean change from baseline for systolic BP [1, 6]: −11.0 mmHg | mean change from baseline for diastolic BP [1, 7]: −6.4 mmHg | mean change from baseline for mean arterial BP [1, 7]: −9.0 mmHg | mean change from baseline for systolic BP [1, 7]: −14.2 mmHg | mean change from baseline for diastolic BP [1, 8]: −10.0 mmHg | mean change from baseline for mean arterial BP [1, 8]: −15.2 mmHg | mean change from baseline for systolic BP [1, 8]: −25.8 mmHg | mean change from baseline for diastolic BP [1, 9]: −8.9 mmHg | mean change from baseline for mean arterial BP [1, 9]: −9.3 mmHg | mean change from baseline for systolic BP [1, 9]: −10.0 mmHg | mean change from baseline for diastolic BP [1, 10]: −5.0 mmHg | mean change from baseline for mean arterial BP [1, 10]: −6.0 mmHg | mean change from baseline for systolic BP [1, 10]: −8.0 mmHg | FF (free flow tubular pressure) [2, 11]: 13.4 ± 0.8 mmHg | GFR (glomerular filtration rate) [2, 11]: 0.9 ± 0.1 mL/min | Kf (ultrafiltration coefficient) [2, 11]: 0.046 ± 0.004 nL/s · mmHg | PGC (glomerular capillary pressure) [2, 11]: 46.3 ± 1.4 mmHg | Pc (peritubular capillary pressure) [2, 11]: 12.5 ± 0.8 mmHg | QA (glomerular plasma flow) [2, 11]: 135.0 ± 11.2 nL/min | SFP (stop flow pressure) [2, 11]: 30.7 ± 0.8 mmHg | SNGFR (single nephron GFR) [2, 11]: 34.6 ± 2.3 nL/min | MAP (mean arterial pressure) ([2]; Normal + FX rats, end of eight weeks, under anesthesia): 123 ± 3 mmHg | FF (free flow tubular pressure) [2, 12]: 12.9 ± 0.5 mmHg | GFR (glomerular filtration rate) [2, 12]: 1.0 ± 0.1 mL/min | Kf (ultrafiltration coefficient) [2, 12]: 0.070 ± 0.011 nL/s · mmHg | PGC (glomerular capillary pressure) [2, 12]: 46.5 ± 1.0 mmHg | Pc (peritubular capillary pressure) [2, 12]: 13.2 ± 0.7 mmHg | QA (glomerular plasma flow) [2, 12]: 183.6 ± 21.4 nL/min | SFP (stop flow pressure) [2, 12]: 29.7 ± 1.0 mmHg | SNGFR (single nephron GFR) [2, 12]: 45.7 ± 5.2 nL/min | ultrafiltration coefficient (Kf) compared to the other groups (in words) [2, 12]: numerically, but insignificantly higher | MAP (mean arterial pressure) ([2]; OA + Fx rats, end of eight weeks, under anesthesia, listed as Fx): 112 ± 5 mmHg | elevation in glomerular capillary pressure (PGC) and stop flow pressure (effect in words) ([2]; OA-treated rats, end of eight weeks): prevented these changes | mean arterial blood pressure (effect in words) ([2]; OA-treated rats, intra-arterial cannulation under anesthesia): reduced to the normal range | glomerular hemodynamics (effect in words) ([2]; normal rats, end of eight weeks): did not alter glomerular hemodynamics | mean arterial blood pressure (effect in words) ([2]; normal rats, under anesthesia): did not alter MAP
